Read-outs that look alike come from different tables or passages of the source.
Experiments:
[1] = tested on: co-cultured human keratinocytes and melanocytes; test: UV induced pigmentation in co-culture of melanocytes and keratinocytes; format: cell-based; settings: co-culture under UV induction
Text: On UV induction, keratinocytes signal to melanocytes to increase melanogenesis. This can be modeled through co-culture of human melanocytes and keratinocytes under UV induction.

Human melanocytes [2] = test: MTT cell viability assay, melanocytes; settings: increasing concentrations
Description: (§1) Human keratinocytes and melanocytes were cultured in the presence of increasing concentrations of a polycationic aliphatic amine transport inhibitor, trimer44NMe, or DFMO, and the cell viability was determined by an MTT assay.

Human keratinocytes = test: MTT cell viability assay, keratinocytes; settings: increasing concentrations (trimer44NMe up to 5 μM)
Description: as §1

[3] = tested on: primary human melanocytes; settings: 3 and 6 days after incubation with putrescine
Text: FIG. 8 is a dot plot showing the viability of cells untreated, treated for 3 days, or treated for 6 days with putrescine.

[4] = tested on: melanogenesis related proteins (TYR, TYRP1 and DCT) in NHEM-aLP cells; settings: putrescine treated vs control, western blotting
Description: Human epidermal melanocytes from adult donor (Hema-LP) were purchased from Life Technologies. The cells were grown in 254 media with HMGS-2 and calcium chloride supplements in a humidified incubator containing 5% CO2 according to the manufacturer's instruction. For putrescine treatments, the cells were plated at an approximate density of 20,000/cm^2 the day before. Fresh media was added along with the respective drugs reconstituted in water (putrescine was purchased from Sigma Aldrich) to the cell cultures on day 0 and day 3 of experiment. The cells were lysed in RIPA buffer, and concentration of the cell lysate was determined by Pierce BCA Protein Assay Kit (Thermo Scientific). […] The membrane was blocked with 5% skim milk in TBST (0.1% Tween-20 (Sigma-Aldrich) in 1×TBS (0.1 M NaCl, 0.1 M Tris pH 7.4 in ddH2O; purchased from Biopolis Shared Facility) and incubated overnight at 4° C. with respective primary antibodies against TYR (sc-7833), TYRP1 (sc-10443), DCT (sc-10451) from Santa Cruz Biotechnology Inc and RPLP0 (AB126480) from Abcam at a dilution of 1:1000 in blocking buffer. The samples were then incubated with horseradish peroxidase-labeled anti-rabbit, or anti-goat IgG (Santa Cruz Biotechnology, Inc) at a dilution 1:5000 for 1 hour at 4° C. and immunoreactive bands were detected with enhanced chemiluminescent substrate (Thermo Fisher Scientific).

[5] = tested on: ATP13A3, SLC11A8 and Caveolin-1 in melanocytes; settings: on addition of putrescine
[6] = tested on: primary human melanocytes; settings: long term culture with putrescine
[7] = tested on: melanogenesis-related genes (TYR, TYRP1, DCT and PMEL) in NHEM-aLP cells; settings: 2 mM putrescine for 6 days, relative to RPLP0
Description: Human epidermal melanocytes from adult donor (Hema-LP) were purchased from Life Technologies. The cells were grown in 254 media with HMGS-2 and calcium chloride supplements in a humidified incubator containing 5% CO2 according to the manufacturer's instruction. For putrescine treatments, the cells were plated at an approximate density of 20,000/cm^2 the day before. Fresh media was added along with the respective drugs reconstituted in water (putrescine was purchased from Sigma Aldrich) to the cell cultures on day 0 and day 3 of experiment.
Total RNA was extracted from the cells using RNAeasy (Qiagen) according to manufacturer's instructions. 500 ng of total RNA was converted to complimentary DNA using RevertAid First Strand cDNA synthesis kit (Thermo Scientifc). It was diluted 1:25, and 4 ul of the diluted mixture was used as a template with specific primers using Luminaris Colour HiGreen Hi ROX master mix (Thermo Fisher Scientific) for qRT-PCR on an ABI PRISM 7900 sequence detection system. […] Expression levels detected by qPCR were normalized with ribosomal protein LP0 or L13A.

[8] = tested on: human abdominal skin biopsies
Text: The skin was them imaged, followed by sectioning and staining with Fontana Mason stain which stains for melanin.

[9] = tested on: cultured human melanocytes; settings: melanocytes cultured with putrescine
Description: To confirm that cultured human melanocytes do take up putrescine, the polycationic aliphatic amine content was measured in melanocytes cultured with and without putrescine.

NHEM-aLP cells [10] = test: Putrescine/spermidine treatment of melanocytes and melanin quantification; format: cell-based, human
Description: 2×10^5 cells were dissolved in 1 M sodium hydroxide solution and incubated at 80° C. for 2 hours. The absorbance of the cell lysates was measured at 405 nm in a microplate well reader.
2×10^5 cells were dissolved in 1M sodium hydroxide solution and incubated at 80° C. for 2 hours. The absorbance of the cell lysates was measured at 405 nm in a microplate well reader.

[11] = tested on: reconstructed epidermis (keratinocytes, melanocytes and fibroblasts); settings: 2 mM Putrescine for 14 days, preliminary experiment
Description: The reconstructed epidermis (Denova Sciences) has normal human keratinocytes three dimensionally cultured at an air-liquid interface in a chemically defined medium, in the presence of melanocytes and fibroblasts. They were treated with 2 mM Putrescine for 14 days.

NHEM-aLP cells [12] = test: MTS proliferation and cytotoxicity colorimetric assay
Human melanocytes [13] = tested on: Human melanocytes
Description: as §1

[14] = tested on: human primary melanocytes; test: Melanin content of melanocytes, putrescine with and without transport inhibitor; format: cell-based; settings: putrescine plus trimer44NMe vs putrescine alone
Description: To confirm that import of putrescine is required for the pigmentation phenotype observed in melanocytes, human primary melanocytes were cultured with putrescine with and without a polycationic aliphatic amine transport inhibitor (trimer44NMe).

SMILES: NCCCC(N)(C(=O)O)C(F)F (racemic) [DFMO, (RS)-2,5-diamino-2-(difluoromethyl)pentanoic acid]
- UV induced pigmentation (melanin-containing keratinocytes) [1]: inhibits UV induced pigmentation
- sensitivity of melanocyte viability (Human melanocytes [2]): comparatively insensitive
- sensitivity of keratinocyte viability (Human keratinocytes): sensitive

SMILES: NCCCCN [putrescine, butane-1,4-diamine]
- cell viability [3]: no decrease in viability
- protein levels of TYR, TYRP1 and DCT [4]: increased drastically
- protein level of Caveolin-1 [5]: decreases
- protein levels of polyamine transporters ATP13A3 and SLC11A8 [5]: increase
- melanin content on long term culture [6]: sustained increase in melanin content
- mRNA expression levels of TYR, TYRP1, DCT and PMEL [7]: significant increase
- darkening of the skin ([8]; incubated ten days): promoted darkening of the skin
- melanin stain within melanocytes and neighboring keratinocytes ([8]; ten days, Fontana Mason stain): increase in melanin stain
- intracellular levels of putrescine vs non-treated cells [9]: dramatically higher
- intracellular levels of spermine [9]: decrease in the levels of spermine
- cell morphology / dendrites (NHEM-aLP cells [10]; 2 mM putrescine, day 6): larger and flatter and displayed an increased number of dendrites
- visual darkening of the melanocytes (NHEM-aLP cells [10]; 2 mM putrescine, every 3 days for 6 days): drastic darkening effect
- increase in melanin content vs control (NHEM-aLP cells [10]; 2 mM putrescine, every 3 days for 6 days, NHEM-aLP cells): 1.5-2 fold
- pigmentation levels compared to control [11]: increase in pigmentation levels
- maximum dose up to which NHEM-aLP can survive (NHEM-aLP cells [12]; 3 days treatment, MTS): 2 mM
- effect on proliferation (NHEM-aLP cells [12]; doses between 0.5 mM and 2 mM, 3 days): mild proliferative effect

SMILES: NCCCCNCCCN [spermidine, N′-(3-aminopropyl)butane-1,4-diamine]
- melanin content of the cells, dose dependence (NHEM-aLP cells [10]; 0.05 mM and 0.5 mM spermidine, every 3 days for 6 days): dose dependant increase
- maximum fold change in melanin content (NHEM-aLP cells [10]; 0.5 mM spermidine, every 3 days for 6 days, NHEM-aLP cells): 1.5-2 fold
- concentration for similar melanin increase relative to putrescine (2 mM) (NHEM-aLP cells [10]; spermidine 0.5 mM vs putrescine 2 mM): 4 times lower

SMILES: CNCCCCNCCCCNCc1cc(CNCCCCNCCCCNC)cc(CNCCCCNCCCCNC)c1 [trimer44NMe]
- sensitivity of melanocyte viability (Human melanocytes [13]): highly sensitive
- effect on putrescine induced pigmentation (melanin content) [14]: blocked the ability of putrescine to promote pigmentation
